Source: patent US8575306B2, “Target and method for inhibition of bacterial RNA polymerase” (Rutgers, The State University of New Jersey, priority 2002, dated 2013)
Entries after “also recorded” stand apart in the source; their conditions may differ. Where a SMILES comes first, the peptide text is derived from it.

What was measured:
RNAP holoenzyme [1] = biological target: T1, RNAP holoenzyme (Escherichia coli, UniProt P0A8T7); experiment: Fluorescence-detected abortive initiation assays; assay type: biochemical; conditions: iterative tri- and tetranucleotide synthesis
T1 construct: RNAP holoenzyme was prepared from, strain XE54/pREII-NHα; made in house; host or cells: E. coli strain XE54/pREII-NHα
Description: Following 15 min at 37° C. 0.5 μl mg/ml heparin was added, and, following a further 2 min at 37° C., 1 μl of 0.25-5 mM (y-AmNS)UTP (Molecular Probes, Inc.) was added, and reaction mixtures were transferred to sub-micro fluorometer cuvettes (Starna Cells, Inc.). Following 2 min at 37° C., RNA synthesis was initiated by addition of 2.5 μl 10 mM ApA, and fluorescence emission intensity was monitored 5 min at 37° C. [excitation wavelength=360 nm and emission wavelength=500 nm; excitation and emission slit widths=4 nm; QuantaMaster QM1 spectrofluororaeter (PTI, Inc).]. The quantity of UMP incorporated into RINA was determined from the quantity of (γ−AmNS)UTP consumed, which, in turn, was calculated as follows (Schlageck et al. 1979): (γ−AmNS)UTPconsumed=[(γ−AmNS)UTP0](Ft−F0)/(12.4×F0) where (γ−AmNS)UTP0 is the quantity of (γ−AmNS)UTP at time 0, F0 is the fluorescence emission intensity at time 0, and Ft is the fluorescence emission intensity at time t. Data were fit to full-competitive, partial-competitive, full-noncompetitive, partial-noncompetitive, full-uncompetitive, partial-uncompetitive, full-mixed, and partial-mixed models of inhibition as in the preceding section.

[2] = tested on: Gram-negative bacterial species, including E. coli; conditions: Salomon and Farias (1992); cited from earlier work
RNAP holoenzyme [3] = biological target: T1, RNAP holoenzyme; experiment: Electrophoretic mobility shift assays (open-complex formation, lacUV5 promoter); assay type: biochemical; conditions: MccJ25 at 1, 10, or 100 μM
Description: Following 15 min at 37° C., 0.5 μl 1 mg/ml heparin was added (to disrupt non-specific complexes (Cech and McClure (1980) Biochem. 19, 2440-2447)), and, following a further 2 min at 37° C., reaction mixtures were applied to 5% polyacrylamide slab gels (30:1 acrylamide/bisacrylamide; 6×9×0.1 cm) and electrophoresed in 90 mM Tris-borate (pH 8.0) and 0.2 mM EDTA (20 V/cm; 30 mm at 37° C.) and analyzed using an x/y fluorescence scanner (Storm 860; Molecular Dynamics, Inc.).

RNAP secondary channel = RNAP secondary channel (Escherichia coli, UniProt P0A8T7); experiment: Fluorescence-resonance-energy-transfer experiments with a fluorochrome-labelled MccJ25 derivative; assay type: binding; conditions: preliminary results
Source text: The results of Yuzenkova et al., (2002) J. Biol. Chem. 277, 50867-50875, although limited, also indicate that inhibition involves a multi-residue determinant within the RNAP secondary channel (five sites for substitutions conferring MccJ25-resistance). […] The RNAP secondary channel is a 25 Å long, ˜10-15 Å wide, fully enclosed tunnel through which NTPs must pass to access the RNAP active-center and NTP binding site (Zhang et al., (1999) Cell 98, 811-824; Cramer et al., (2001) Science 292, 1863-1876; and Ebright (2000) J. Mol. Biol. 304, 687-689).

[4] = biological target: T2, [Ile931]β′-RNAP holoenzyme (Escherichia coli, UniProt P0A8T7, T931I); experiment: Transcription assays with MccJ25-resistant RNAP derivative; assay type: biochemical
T2 construct: hexahistidine (C); made in house; host or cells: E. coli strain 397c (rpoC ts397) transformed with a pRL663 derivative
Description: MccJ25 interferes with a process common to both abortive initiation and elongation—i.e., NTP uptake, phosphodiester-bond formation, or translocation.
RNAP holoenzyme was prepared from, strain XE54/pREII-NHα (thi pREII-NHα; Niu et al., (1996) Cell 87, 1123-1134) using metal-ion affinity chromatography and ion-exchange chromatography (Id.). (Ile931]β′-RNAP holoenzyme was prepared from strain 397c [rpoC^ts397 argG thi lac λcI857h80St68dlac^+); Christie et al., (1996) J. Bacteriol. 178, 6991-6993) transformed with a pRL663 derivative encoding [Ile931]β′-RNAP (constructed using site-directed mutagenesis (QuikChange Site-Directed Mutagenesis Kit; Stratagene, Inc).) using identical procedures. Yields typically were 6 mg. Purities typically were >95%.
Following 15 min at 37° C., 0.5 μl 1 mg/ml heparin, was added, and, following a further 2 min at 37° C., RNA synthesis was initiated by addition of 2 μl 5 mM ApA and 125 μM (or 250 jiM, 500 μM, and 1 mM) each of [α-^32P]UTP (0.6 Bq/fmol), ATP, CTP, GTP. […] Products were heated 10 min at 90° C., resolved by urea-PAGE (Sambrook and Russell (2001). Molecular Cloning: A Laboratory Manual (Cold Spring Harbor, N.Y., Cold Spring Harbor Laboratory)), and quantified using an x/y storage-phosphor scanner (Storm 860; Molecular Dynamics, Inc.). […]

CC[C@H](C)[C@H](NC(=O)CNC(=O)[C@@H](NC(=O)[C@H](Cc1ccccc1)NC(=O)[C@H](Cc1ccc(O)cc1)NC(=O)[C@@H]1CCC(=O)NCC(=O)NCC(=O)N[C@@H](C)C(=O)NCC(=O)N[C@@H](Cc2c[nH]cn2)C(=O)N[C@@H](C(C)C)C(=O)N2CCC[C@H]2C(=O)N1)C(C)C)C(=O)NCC(=O)N[C@H](C(=O)N1CCC[C@H]1C(=O)N[C@H](C(=O)N[C@@H](CO)C(=O)N[C@@H](Cc1ccccc1)C(=O)N[C@@H](Cc1ccc(O)cc1)C(=O)NCC(=O)O)[C@@H](C)CC)[C@@H](C)O [MccJ25] (HELM PEPTIDE1{G.G.A.G.H.V.P.E.Y.F.V.G.I.G.T.P.I.S.F.Y.G}$PEPTIDE1,PEPTIDE1,1:R1-8:R3$$$V2.0)
mode of inhibition (RNAP holoenzyme [1]): partial-competitive
bacteriocidal activity [2]: exhibits bacteriocidal activity
effect on formation of open complex (RNAP holoenzyme [3]): no effect; also recorded: does not inhibit
binding site on RNAP (RNAP secondary channel): binds within the RNAP secondary channel
inhibition of transcription upon substitution of residue 931 of the RNAP β′ subunit (Thr931→Ile) [4]: overcome completely
